# Assay results taken from patent US7153869B2, “Substituted amino acids as erythropoietin mimetics” (priority 1998, dated 2006).
# Read-outs that look alike come from different tables or passages of the source.
# Target: T1, EBP-Ig (N-terminal 225 amino acids of the human EPO receptor joined to an Ig heavy chain) (Homo sapiens, UniProt P19235)
# T1 construct: Ig heavy chain (fusion partner); made in house; host or cells: NSO cells (secreted into conditioned media)
# T1 sequence (P19235 25-250 limits assumed): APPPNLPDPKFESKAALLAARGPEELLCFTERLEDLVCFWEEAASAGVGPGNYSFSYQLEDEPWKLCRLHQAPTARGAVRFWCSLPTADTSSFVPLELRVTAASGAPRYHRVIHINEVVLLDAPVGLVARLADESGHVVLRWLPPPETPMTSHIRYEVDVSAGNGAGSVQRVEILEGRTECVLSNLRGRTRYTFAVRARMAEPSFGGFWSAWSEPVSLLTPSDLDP
# Test: Inhibition of [125I]EPO binding to immobilized EBP-Ig (EPO binding protein-Ig), scintillation Flash plate competition assay
# Settings: for IC30 μM (Inhibition of EPO binding to EBP-Ig) / IC50 / % inh @ 50 μM (Inhibition of EPO binding to EBP-Ig): 0.5 nM [125I]EPO; for IC30 μM (Inhibition of EPO binding to EBP-Ig): 0–500 μM test compound; for IC50: read-out: IC50, μM (Inhibition of EPO binding to EBP-Ig), concentration reducing corrected total binding to 50%; for % inh @ 50 μM (Inhibition of EPO binding to EBP-Ig): 50 μM test compound, average % inhibition
# [1] = read-out: % inh @ 50 μM (Inhibition of EPO binding to EBP-Ig)
structure (smiles),measurement,setting,value
Cc1ccc(Oc2cccc(CN(Cc3cccc(NCc4ccccc4F)c3)C(CC(=O)O)C(=O)O)c2)cc1 (centres unmarked) [compound 73],EPO/EBP-Ig % inh @ 50 μM,"Table 4, 50 μM",−13%
O=C(O)CCC(C(=O)O)N(C/C=C/c1ccc(NC(=O)Oc2ccccc2)cc1)Cc1ccc(OCc2ccccc2)cc1 (centres unmarked) [compound 89],EPO/EBP-Ig % inh @ 50 μM,"Table 5, 50 μM",22%
CCCCNC(=O)C(CCCCNC(=O)c1ccccc1OC)N(C/C=C/c1ccccc1)C/C=C/c1ccccc1 (centres unmarked) [compound 209],EPO/EBP-Ig % inh @ 50 μM,"50 μM compound, Table 10, 50 µM",25%
COc1cccc(CCNC(=O)C(CCCCNC(=O)CCC(=O)O)N(CC=Cc2ccccc2)CC=Cc2ccccc2)c1 (centres unmarked) [compound 237],IC30 μM (Inhibition of EPO binding to EBP-Ig),,30 µM
same,inhibition at 50 µM,[1],55%
same,inhibition at 50 µM,"read-out: EPO/EBP-Ig % inh @ 50 μM, 50 μM compound, Table 10",55%
same,IC50,,70 µM
"COC(=O)C(CCC(=O)O)NCC=Cc1cccc(Oc2ccccc2)c1 (centres unmarked) [cpd 325, N-(3-Phenoxycinnamyl)Glu-OMe]",EPO/EBP-Ig % inh @ 50 μM,"50 μM compound, Table 19A",6%
COC(=O)[C@H](CO)NC/C=C/c1cccc(Oc2cccc(C(F)(F)F)c2)c1.O=C(O)C(F)(F)F [compound 344],EPO/EBP-Ig % inh @ 50 μM,"50 μM compound, Table 20A",4%
CC(C)(C)OC(=O)CN(C/C=C/c1cccc(Oc2ccccc2)c1)C/C=C/c1cccc(Oc2ccccc2)c1 [compound 311],EPO/EBP-Ig % inh @ 50 μM,"50 μM compound, Table 17A",5.3%
COC(=O)[C@H](Cc1c[nH]c2ccccc12)NC/C=C/c1ccccc1 [compound 364],EPO/EBP-Ig % inh @ 50 μM,50 μM compound,16%
COC(=O)C(CCCCNC(=O)OCc1ccccc1)N(C/C=C/c1ccccc1)C/C=C/c1ccccc1 (centres unmarked) [compound 171],EPO/EBP-Ig % inh @ 50 μM,"50 μM compound, Table 9",nb
COC(=O)C(CCCCNC(=O)OCc1ccccc1)N(C/C=C/c1cccc(Oc2ccccc2)c1)C/C=C/c1cccc(Oc2ccccc2)c1 (centres unmarked) [compound 176],EPO/EBP-Ig % inh @ 50 μM,"50 μM compound, Table 9",−4%
COC(=O)c1cccc(C=CCNC(Cc2ccc(OC)cc2)C(=O)OC)c1 (centres unmarked) [compound 363],IC30 μM (Inhibition of EPO binding to EBP-Ig),,35 µM
same,inhibition at 50 µM,[1],33%
same,inhibition at 50 µM,"read-out: EPO/EBP-Ig % inh @ 50 μM, 50 μM compound",33%
same,IC50,,220 µM
CC(C)(C)OC[C@@H](C(=O)O)N(C/C=C/c1cccc(Oc2ccc(C(C)(C)C)cc2)c1)C/C=C/c1cccc(Oc2ccc(C(C)(C)C)cc2)c1 [compound 304],EPO/EBP-Ig % inh @ 50 μM,"50 μM compound, Table 16A",19%
CC(C)(C)OC(=O)NCCCCC(C(=O)O)N(C/C=C/c1ccc([N+](=O)[O-])cc1)C/C=C/c1ccc([N+](=O)[O-])cc1 (centres unmarked) [compound 179],EPO/EBP-Ig % inh @ 50 μM,"50 μM compound, Table 9",30%
same,% inh @ 50 μM (Inhibition of EPO binding to EBP-Ig),,30%
COC(=O)C(CCCCNC(=O)OC(C)(C)C)N(C/C=C/c1cccc(Oc2ccc(C(C)(C)C)cc2)c1)C/C=C/c1cccc(Oc2ccc(C(C)(C)C)cc2)c1 (centres unmarked) [compound 181],EPO/EBP-Ig % inh @ 50 μM,"50 μM compound, Table 9",−9%
O=C(O)CCC(C(=O)NCCOCCOCCNC(=O)C(CCC(=O)O)N(CC=Cc1ccccc1)CC=Cc1ccccc1)N(CC=Cc1ccccc1)CC=Cc1ccccc1 (centres unmarked) [compound 251],IC30 μM (Inhibition of EPO binding to EBP-Ig),,10 µM
same,EPO/EBP-Ig % inh @ 50 μM,"50 μM compound, Table 12",49%
same,% inh @ 50 μM (Inhibition of EPO binding to EBP-Ig),,49%
same,IC50,,45 µM
COC(=O)[C@H](C)NC/C=C/c1ccccc1 [compound 372],EPO/EBP-Ig % inh @ 50 μM,50 μM compound,0%
O=C(O)CCCC(=O)NCCCCC(C(=O)NCCCOCCOCCOCCCNC(=O)C(CCCCNC(=O)CCCC(=O)O)N(Cc1ccc(OCc2ccccc2)cc1)Cc1ccc(OCc2ccccc2)cc1)N(Cc1ccc(OCc2ccccc2)cc1)Cc1ccc(OCc2ccccc2)cc1 (centres unmarked) [compound 272],IC30 μM (Inhibition of EPO binding to EBP-Ig),,5 µM
same,IC50,,10 µM
Cc1ccc(S(=O)(=O)Nc2cccc(CN(Cc3cccc(NS(=O)(=O)c4ccc(C)cc4)c3)C(CC(=O)O)C(=O)O)c2)cc1 (centres unmarked) [compound 65],EPO/EBP-Ig % inh @ 50 μM,"Table 4, 50 μM",−7%
